Measured values published in patent publication US12486268B2 (TRANSNEURAL THERAPEUTICS, INC., priority 2022, dated 2025).
Counter-ions that a name gives are not always drawn.

Molecular target: T1, human serotonin 2A receptors (5-HT2AR) (Homo sapiens, UniProt P28223)
T1 construct: expressed in transfected cells; host or cells: HEK 293 cells
Assay: IP1 accumulation assay (HTRF)
Type: cell-based
Parameters: key to h5-HT2A EC50: A=<100; B=100 to 1000; C=>1000 to 10000; D=>10000; E=inactive
Details: HEK 293 cells expressing human 5-HT2AR; for Emax: HEK293, IP1 production, relative to 5-HT, read-out: h5-HT2A Emax; for h5-HT2A EC50 / EC50: IP1 production (proxy for Gq activation); for EC50: read-out: h5-HT2A EC50
Description: The functional activity of disclosed compounds is measured using an IP1 (inositol monophosphate) accumulation assay. The effects of disclosed compounds on IP1 production (a proxy for Gq activation) was measured in HEK 293 cells expressing human serotonin 2A receptors (5-HT2AR) using a Homogeneous Time Resolved Fluorescence (HTRF) assay. Standard protocols are followed. Briefly, a cell suspension and test compound/s is incubated in a standard buffer. Following incubation, the cells are lysed, and the fluorescence acceptor and donor are added. After incubation the fluorescence transfer is measured, and data is analyzed using GraphPad Prism to generate concentration response curves.

T1 sequence (P28223 whole entry): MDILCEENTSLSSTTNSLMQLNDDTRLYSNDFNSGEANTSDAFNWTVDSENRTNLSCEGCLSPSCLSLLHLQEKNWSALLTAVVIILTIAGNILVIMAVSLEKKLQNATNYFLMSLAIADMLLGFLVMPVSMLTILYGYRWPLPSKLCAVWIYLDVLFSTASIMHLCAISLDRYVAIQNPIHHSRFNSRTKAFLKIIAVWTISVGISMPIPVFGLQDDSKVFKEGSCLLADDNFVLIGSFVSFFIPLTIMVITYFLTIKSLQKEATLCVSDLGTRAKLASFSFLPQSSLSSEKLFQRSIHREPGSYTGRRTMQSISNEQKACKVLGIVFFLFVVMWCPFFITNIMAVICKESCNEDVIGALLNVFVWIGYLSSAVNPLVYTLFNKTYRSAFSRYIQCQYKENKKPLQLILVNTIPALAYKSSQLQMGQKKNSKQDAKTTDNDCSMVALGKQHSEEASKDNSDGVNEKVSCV

SMILES	Emax [%]	h5-HT2A EC50	EC50 [µM]
CC1C=C(c2c[nH]c3ncccc23)CN(CC(C)(F)F)C1 (single isomer, unassigned) [103 Isomer 1]	< 50	E	–
CC1C=C(c2c[nH]c3ncccc23)CN(CC(C)(F)F)C1 (single isomer, unassigned) [103 Isomer 2]	–	E	–
CC1C=C(c2c[nH]c3ncccc23)CN(CC(F)(F)C(F)(F)F)C1 (single isomer, unassigned) [105 Isomer 1]	–	E	–
CC1C=C(c2c[nH]c3ncccc23)CN(CC(F)(F)C(F)(F)F)C1 (single isomer, unassigned) [105 Isomer 2]	< 50	E	–
FC(F)(F)C1C=C(c2c[nH]c3ncccc23)CNC1 (stereo not drawn) [Compound 101, 3-(5-(trifluoromethyl)-1,2,5,6-tetrahydropyridin-3-yl)-1H-pyrrolo[2,3-b]pyridine]	75 to 90	–	1 to 10
CN1CC(c2c[nH]c3ncccc23)=CC(C(F)(F)F)C1 (stereo not drawn) [Compound 102, 3-(1-methyl-5-(trifluoromethyl)-1,2,5,6-tetrahydropyridin-3-yl)-1H-pyrrolo[2,3-b]pyridine]	–	–	> 10
CN1CCC2CC2(c2c[nH]c3ncccc23)C1 (stereo not drawn) [Compound 106, 3-(3-methyl-3-azabicyclo[4.1.0]heptan-1-yl)-1H-pyrrolo[2,3-b]pyridine]	–	–	> 10
CC1(C)C=C(c2c[nH]c3ncccc23)CNC1 [Compound 107, 3-(5,5-dimethyl-1,2,5,6-tetrahydropyridin-3-yl)-1H-pyrrolo[2,3-b]pyridine hydrochloride]	–	–	> 10
CN1CC(c2c[nH]c3ncccc23)=CC(C)(C)C1 [Compound 108, 3-(1,5,5-trimethyl-1,2,5,6-tetrahydropyridin-3-yl)-1H-pyrrolo[2,3-b]pyridine hydrochloride]	–	–	> 10
N#CC1C=C(c2c[nH]c3ncccc23)CNC1 (stereo not drawn) [Compound 132, 5-(1H-pyrrolo[2,3-b]pyridin-3-yl)-1,2,3,6-tetrahydropyridine-3-carbonitrile]	–	–	> 10
C1=C(c2c[nH]c3ncccc23)C2CC1CN2 (stereo not drawn) [Compound 134]	< 50	E	–
CN1C2CC=C(c3c[nH]c4ncccc34)C1CC2 (stereo not drawn) [Compound 141, 3-(8-methyl-8-azabicyclo[3.2.1]oct-2-en-2-yl)-1H-pyrrolo[2,3-b]pyridine]	–	–	> 10
CCN1CC(c2c[nH]c3ncccc23)=CC2(CC2)C1 [Compound 144, 3-(5-ethyl-5-azaspiro[2.5]oct-7-en-7-yl)-1H-pyrrolo[2,3-b]pyridine]	75 to 90	–	1 to 10
C1=C(c2c[nH]c3ncccc23)CNCC12CCC2 [Compound 145, 3-(6-azaspiro[3.5]non-8-en-8-yl)-1H-pyrrolo[2,3-b]pyridine]	< 50	–	1 to 10
CN1CC(c2c[nH]c3ncccc23)=CC2(CCC2)C1 [Compound 146, 3-(6-methyl-6-azaspiro[3.5]non-8-en-8-yl)-1H-pyrrolo[2,3-b]pyridine dihydrochloride]	50 to 75	–	0.1 to 1
C1=C(c2c[nH]c3ncccc23)C2(CC2)NCC1 [Compound 147, 3-(4-azaspiro[2.5]oct-7-en-8-yl)-1H-pyrrolo[2,3-b]pyridine hydrochloride]	> 90	–	1 to 10
CC1(C)CC=C(c2c[nH]c3ncccc23)CN1 [Compound 148, 3-(6,6-dimethyl-1,2,5,6-tetrahydropyridin-3-yl)-1H-pyrrolo[2,3-b]pyridine hydrochloride]	< 50	E	–
CC1(C)NCCC=C1c1c[nH]c2ncccc12 [Compound 149, 3-(2,2-dimethyl-1,2,5,6-tetrahydropyridin-3-yl)-1H-pyrrolo[2,3-b]pyridine]	< 50	E	–
C1=C(c2nsc3ccccc23)CNCC1 [Compound 160, 3-(1,2,5,6-tetrahydropyridin-3-yl)benzo[d]isothiazole]	> 90	–	< 0.1
